According to patent publication US9303064B2, “Peptide inhibiting matrix metalloproteanases activity and use thereof” (CAREGEN CO., LTD., priority 2011, dated 2016):

System: Hyaluronate lyase
Test: Filler product injected into rat dorsal skin
Assay type: in vivo
Conditions: 1-7 days, FIG. 6e
Procedure: FIG. 6e represents effects on residence times of filler products when the filler product containing hyaluronate lyase and the peptide (SEQ ID NO:2) is injected to rat dorsal skin. The effects were determined at intervals of 1-7 days.
Hyaluronate lyase was artificially put into a commercial filler product at a concentration of 100 ug to induce degradation of hyaluronic acids, and then 200 ug peptides were treated. […] An assay using GPC column and an in vivo experiment using rats are performed. Control group was treated with hyaluronate lyase, and treatment group was co-treated hyaluronate lyase and each peptide. When the filler product was injected into rat skin, the degradation of hyaluronic acids inside the filler was inhibited by the treatment of peptides (FIG. 6e).

MIPCYISSP (CG-Seperin) [SEQ ID NO:2]
degradation of hyaluronic acids inside the filler injected into rat skin (filler with hyaluronate lyase and peptide): hyaluronic acids degradation effect is excellent | residence times of filler products (versus only filler products): stayed for longer period
